Values quoted from earlier work as cited in article PMC7904743, “WIDOCK: a reactive docking protocol for virtual screening of covalent inhibitors” (Journal of Computer-Aided Molecular Design, 2021).
Read-outs that look alike come from different tables or passages of the source.

Columns and labels:
[1] = tested on: OTUB2; details: experimental actives if % labeling higher than 50%, cited from earlier work
[2] = tested on: NUDT7; details: protein labeling at 200 μM; experimental actives if % labeling higher than 50%; cited from earlier work
[3] = thiol reactivity, cited from earlier work
[4] = natural log of average rate constant k
[5] = natural logarithm of average rate constant
[6] = natural log of average kinetic rate constant
[7] = natural log of average rate constant

Structure (SMILES)	OTUB2 % labeling [1] [%]	NUDT7 % labeling [2] [%]	ln(avg k) [3, 4]	ln(avg k) [3, 5]	OTUB2 % labeling ([1]; OTUB2 protein labeling) [%]	ln(avg k) [3, 6]	ln(avg k) [3, 7]
CNC(=O)c1cccc(NC(=O)CCl)c1 [PCM-0102113, CNC(=O)c1cccc(NC(=O)CCl)c1]	0	0	-15.492	-15.492	–	–	–
O=C(CCl)N1CCN(S(=O)(=O)c2cccc(F)c2)CC1 [PCM-0102327, O=C(CCl)N1CCN(S(=O)(=O)c2cccc(F)c2)CC1]	0	13	-15.130	-15.130	–	–	–
CC(C)(C)OC(=O)CNC(=O)CCl [PCM-0102981, CC(C)(C)OC(=O)CNC(=O)CCl]	–	0	–	–	0	-17.661	-17.661
Cc1cc(CNC(=O)CCl)ccc1F [PCM-0102305, Cc1cc(CNC(=O)CCl)ccc1F]	59	0	-16.230	-16.230	–	–	–
CN(Cc1cc(C#N)ccc1F)C(=O)CCl [PCM-0102897, CN(Cc1cc(C#N)ccc1F)C(=O)CCl]	–	7	–	–	0	-15.579	-15.579
CC(NC(=O)CCl)c1ccc(F)cc1F (stereo not drawn) [PCM-0103035, CC(NC(=O)CCl)c1ccc(F)cc1F]	–	15	–	–	34	-15.881	-15.881
Cc1ccc(S(=O)(=O)N2CCN(C(=O)CCl)CC2)cc1C [PCM-0102379, Cc1ccc(S(=O)(=O)N2CCN(C(=O)CCl)CC2)cc1C]	0	10	-15.076	-15.076	–	–	–
O=C(CCl)N1CCN(c2ccc(Cl)cc2[N+](=O)[O-])CC1 [PCM-0102125, O=C(CCl)N1CCN(c2ccc(Cl)cc2[N+](=O)[O-])CC1]	0	29	-15.501	-15.501	–	–	–
Cc1noc(C)c1CNC(=O)CCl [PCM-0102780, Cc1noc(C)c1CNC(=O)CCl]	–	11	–	–	0	-16.766	-16.766
O=C(CCl)NCC1CCCO1 (stereo not drawn) [PCM-0102356, O=C(CCl)NCC1CCCO1]	5	0	-16.672	-16.672	–	–	–
O=C(CCl)N1CCN(c2ncccn2)CC1 [PCM-0102093, O=C(CCl)N1CCN(c2ncccn2)CC1]	0	0	-15.547	-15.547	–	–	–
CN(C)C(=O)c1cccc(NC(=O)CCl)c1 [PCM-0102345, CN(C)C(=O)c1cccc(NC(=O)CCl)c1]	0	10	-15.488	-15.488	–	–	–
O=C(CCl)N1CCCC1c1cccs1 (stereo not drawn) [PCM-0102393, O=C(CCl)N1CCCC1c1cccs1]	0	36	-15.246	-15.246	–	–	–
Cc1cc(NC(=O)CCl)on1 [PCM-0102197, Cc1cc(NC(=O)CCl)on1]	0	0	-16.303	-16.303	–	–	–
O=C(CCl)NC(=O)Nc1ccc2c(c1)OCCCO2 [PCM-0102910, O=C(CCl)NC(=O)Nc1ccc2c(c1)OCCCO2]	–	0	–	–	0	-16.097	-16.097
O=C(CCl)N1CCC(C(=O)N2CCCCC2)CC1 [PCM-0102972, O=C(CCl)N1CCC(C(=O)N2CCCCC2)CC1]	–	0	–	–	8	-15.512	-15.512
CC(=O)N1CCc2cc(NC(=O)CCl)ccc21 [PCM-0102129, CC(=O)N1CCc2cc(NC(=O)CCl)ccc21]	31	7	-15.858	-15.858	–	–	–
CC1CN(c2ccc(NC(=O)CCl)cc2)CC(C)O1 (stereo not drawn) [PCM-0102750, CC1CN(c2ccc(NC(=O)CCl)cc2)CC(C)O1]	–	0	–	–	24	-15.710	-15.710
O=C(CCl)N1N=C(c2ccco2)CC1c1ccsc1 (stereo not drawn) [PCM-0102659, O=C(CCl)N1N=C(c2ccco2)CC1c1ccsc1]	0	39	-14.828	-14.828	–	–	–
O=C(CCl)Nc1ccc([N+](=O)[O-])cc1Br [PCM-0102848, O=C(CCl)Nc1ccc([N+](=O)[O-])cc1Br]	–	24	–	–	0	-16.062	-16.062
O=C(CCl)NNC(=O)c1ccco1 [PCM-0102985, O=C(CCl)NNC(=O)c1ccco1]	–	0	–	–	27	-17.545	-17.545

Structure (SMILES)	OTUB2 % labeling [1] [%]	NUDT7 % labeling [2] [%]	ln(avg k) [3, 4]	ln(avg k) [3, 5]	OTUB2 % labeling ([1]; OTUB2 protein labeling) [%]	ln(avg k) [3, 6]	ln(avg k) [3, 7]
O=C(CCl)N1CCN(c2ccccn2)CC1 [PCM-0102213, O=C(CCl)N1CCN(c2ccccn2)CC1]	0	0	-15.928	-15.928	–	–	–
COC(=O)c1sccc1NC(=O)CCl [PCM-0102367, COC(=O)c1sccc1NC(=O)CCl]	0	12	-15.715	-15.715	–	–	–
CC(C)c1ccc(NC(=O)CCl)cc1 [PCM-0102532, CC(C)c1ccc(NC(=O)CCl)cc1]	33	18	-15.987	-15.987	–	–	–
CC1CCC(N(C)C(=O)CCl)CC1 (stereo not drawn) [PCM-0103019, CC1CCC(N(C)C(=O)CCl)CC1]	–	0	–	–	0	-16.049	-16.049
O=C(CCl)Nc1ccc(Br)cc1Cl [PCM-0102505, O=C(CCl)Nc1ccc(Br)cc1Cl]	7	59	-16.521	-16.521	–	–	–
O=C(CCl)N1CCN(Cc2ccc(Br)s2)CC1 [PCM-0102169, O=C(CCl)N1CCN(Cc2ccc(Br)s2)CC1]	0	0	-15.949	-15.949	–	–	–
O=C(CCl)N1CCN(S(=O)(=O)c2ccc3c(c2)CCC3)CC1 [PCM-0102193, O=C(CCl)N1CCN(S(=O)(=O)c2ccc3c(c2)CCC3)CC1]	0	0	-15.169	-15.169	–	–	–
O=C(CCl)Nc1cc2ccccc2cc1C(=O)O [PCM-0102311, O=C(CCl)Nc1cc2ccccc2cc1C(=O)O]	10	17	-15.248	-15.248	–	–	–
O=C(CCl)Nc1ccc([N+](=O)[O-])cc1Cl [PCM-0102392, O=C(CCl)Nc1ccc([N+](=O)[O-])cc1Cl]	21	16	-15.878	-15.878	–	–	–
O=C(CCl)N1CCN(Cc2ccccc2)CC1 [PCM-0103063, O=C(CCl)N1CCN(Cc2ccccc2)CC1]	–	7	–	–	35	-16.178	-16.178
Cc1sc(NC(=O)CCl)c(C)c1C [PCM-0102968, Cc1sc(NC(=O)CCl)c(C)c1C]	–	0	–	–	0	-16.020	-16.020
O=C(CCl)Nc1cccc(N2CCCC2=O)c1 [PCM-0102179, O=C(CCl)Nc1cccc(N2CCCC2=O)c1]	47	12	-15.495	-15.495	–	–	–
O=C(CCl)NCc1ccc(F)cc1C(F)(F)F [PCM-0102733, O=C(CCl)NCc1ccc(F)cc1C(F)(F)F]	33	6	–	-16.673	–	–	-16.673
O=C(CCl)N1CCN(c2ccccc2Cl)CC1 [PCM-0102297, O=C(CCl)N1CCN(c2ccccc2Cl)CC1]	0	35	-14.978	-14.978	–	–	–
N#Cc1ccc(CNC(=O)CCl)cc1 [PCM-0102946, N#Cc1ccc(CNC(=O)CCl)cc1]	–	0	–	–	35	-16.364	-16.364
O=C(CCl)N1CCN(C(=O)C2CC2)CC1 [PCM-0102970, O=C(CCl)N1CCN(C(=O)C2CC2)CC1]	–	7	–	–	0	-15.304	-15.304
CC1CC(=O)Nc2ccccc2N1C(=O)CCl (stereo not drawn) [PCM-0102697, CC1CC(=O)Nc2ccccc2N1C(=O)CCl]	0	22	-15.686	-15.686	–	–	–
CC(NC(=O)CCl)c1ccc2c(c1)OCO2 (stereo not drawn) [PCM-0103030, CC(NC(=O)CCl)c1ccc2c(c1)OCO2]	–	12	–	–	28	-16.554	-16.554
O=C1CN(C(=O)CCl)C2(CCCCC2)C(=O)N1 [PCM-0102139, O=C1CN(C(=O)CCl)C2(CCCCC2)C(=O)N1]	5	22	-15.673	-15.673	–	–	–
CC(NC(=O)CCl)c1ccc(Cl)c(Cl)c1 (stereo not drawn) [PCM-0102096, CC(NC(=O)CCl)c1ccc(Cl)c(Cl)c1]	26	51	-16.200	-16.200	–	–	–
Cc1ccc(NC(=O)CCl)cc1Cl [PCM-0102208, Cc1ccc(NC(=O)CCl)cc1Cl]	46	19	-15.859	-15.859	–	–	–
